Measurements as given in PubChem BioAssay (NCI).
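1) Cells in 96-well plates. 2) Compound, 48 h, 5 concentrations. 3) Linear interpolation between surrounding doses. 4) Unreached endpoint = highest concentration. TGI marks complete inhibition of growth.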

Tests used:
Assay in all cases: inhibition of tumour cell growth, NCI panel, 48 h
KM12 colon = test system: KM12 colon
HOP-92 NSCLC = test system: HOP-92 NSCLC
IGROV1 ovarian = test system: IGROV1 ovarian
U251 CNS = test system: U251 CNS
MDA-MB-231 breast = test system: MDA-MB-231 breast
SF-268 CNS = test system: SF-268 CNS
HOP-62 NSCLC = test system: HOP-62 NSCLC
COLO 205 colon = test system: COLO 205 colon
SK-MEL-2 melanoma = test system: SK-MEL-2 melanoma
RPMI-8226 leukemia = test system: RPMI-8226 leukemia
BT-549 breast = test system: BT-549 breast
TK-10 renal = test system: TK-10 renal
SR leukemia = test system: SR leukemia
HL-60(TB) leukemia = test system: HL-60(TB) leukemia

| Compound | TGI (KM12 colon) [µM] | TGI (HOP-92 NSCLC) [µM] | TGI (IGROV1 ovarian) [µM] | TGI (U251 CNS) [µM] | TGI (MDA-MB-231 breast) [µM] | TGI (SF-268 CNS) [µM] | TGI (HOP-62 NSCLC) [µM] | TGI (COLO 205 colon) [µM] | TGI (SK-MEL-2 melanoma) [µM] | TGI (RPMI-8226 leukemia) [µM] | TGI (BT-549 breast) [µM] | TGI (TK-10 renal) [µM] | TGI (SR leukemia) [µM] | TGI (HL-60(TB) leukemia) [µM] |
| --- | --- | --- | --- | --- | --- | --- | --- | --- | --- | --- | --- | --- | --- | --- |
| CC(=O)O[C@H]1C(=O)[C@@]2(C)[C@H]([C@H](OC(=O)c3ccccc3)[C@]3(O)C[C@H](OC(=O)[C@H](O)[C@@H](NC(=O)c4ccccc4)c4cccc(N(C)C)c4)C(C)=C1C3(C)C)[C@]1(OC(C)=O)CO[C@@H]1C[C@@H]2O | > 24.7 | > 75 | > 75 | > 27 | 36.1 | > 75 | > 18.3 | 0.285 | > 75 | 0.236 | 3.51 | > 60 | 9.71 | 0.0414 |
| O=C(C/C(=N/O)C(F)(F)F)c1cccs1 | > 100 | > 100 | > 100 | > 100 | > 100 | > 100 | > 100 | > 100 | > 100 | > 100 | > 100 | > 100 | > 100 | > 100 |
| CCCCc1ccc(Nc2nc(Cl)c3c(ncn3C3CC(Oc4ccc(C)cc4)C(COc4ccc(C)cc4)O3)n2)cc1 (configuration not stated) | > 100 | > 100 | > 100 | > 100 | > 100 | > 100 | > 100 | > 100 | > 100 | > 100 | > 100 | > 100 | > 100 | > 100 |
| CCC(CC)(CO)CNc1cc(Cl)nc(N)n1 | > 100 | > 100 | > 100 | > 100 | > 100 | > 100 | > 100 | > 100 | > 100 | > 100 | > 100 | > 100 | > 100 | > 100 |
| C=CC(=O)N1C/C(=C\c2ccc([N+](=O)[O-])cc2)C(=O)/C(=C/c2ccc([N+](=O)[O-])cc2)C1 | 0.607 | 2.98 | 0.419 | 0.978 | 0.278 | 0.338 | 0.375 | 0.273 | 1.8 | > 100 | 0.567 | 2.09 | > 100 | > 100 |
| COc1ccc2c(c1)NC1(CCN(CCCC(=O)c3ccc(F)cc3)CC1)N=N2 | 41 | > 100 | 64 | 48.6 | 45.7 | > 100 | 60.3 | 27.8 | 39.8 | 42.2 | 74.7 | 62.2 | 35.4 | 32.8 |
| O=[N+]([O-])c1cc(F)ccc1S(=O)(=O)c1ccccc1 | > 10 | > 10 | > 10 | > 10 | > 10 | > 10 | > 10 | > 10 | > 10 | > 10 | > 10 | > 10 | > 10 | > 10 |
| O=C(CN1CCCCC1)Nc1ccc2c(c1)C1Oc3ccccc3CC1CO2 (configuration not stated) | 49.9 | 54.7 | 58 | 33.3 | 36.8 | > 100 | 34.1 | 26.2 | 35.5 | > 100 | 44.6 | 50.9 | > 100 | > 100 |
| O=[N+]([O-])c1cc2ccc(N(CCO)CCO)nc2nc1N(CCO)CCO | > 100 | > 100 | > 100 | > 100 | > 100 | > 100 | > 100 | > 100 | > 100 | > 100 | > 100 | > 100 | > 100 | > 100 |
| CC(=O)C(C(C)=O)[C@@H]1OC(C)(C)O[C@@H]1[C@H]1COC(C)(C)O1 | > 100 | > 100 | > 100 | > 100 | > 100 | > 100 | > 100 | > 100 | > 100 | > 100 | > 100 | > 100 | > 100 | > 100 |
| Cc1c(C)c(C)c(-n2c(=O)n(C)c(=O)n2-c2cc(C(C)(C)C)cc(C(C)(C)C)c2O)c(C)c1C | > 45.3 | 17.6 | 22 | 19.6 | 17 | 27.7 | 28 | 20 | 20.3 | 29 | 28.1 | 24.5 | > 46.9 | 11.4 |
| COc1cccc2cc(C(=O)Nc3ccccc3)c(=N)oc12 | > 100 | > 100 | > 100 | > 100 | > 100 | > 100 | > 100 | > 100 | > 100 | > 100 | > 100 | > 100 | > 100 | > 100 |
| O=C(O)c1c2c(cc3c1CC1(Cc4cc5c(cc4C1=O)CCC5)C3)CCC2 (configuration not stated) | > 100 | > 100 | > 100 | > 100 | > 100 | > 100 | > 100 | > 100 | > 100 | > 100 | > 100 | > 100 | > 100 | > 100 |
